The values below come from PMC3806051 (Journal of the American Chemical Society, 2013).

A short description of data set [1]: Interconversion of isomers in MeCN-H2O. The format is physicochemical. Conditions: for isomerization in CH3CN-H2O: over a period of up to four days.
Data set [2] deals with SJSA-1 osteosarcoma tumor xenograft. It is filed as in vivo. As to conditions: for tumor growth inhibition as compared to vehicle control: end of treatment (day 26); for weight loss or other signs of toxicity: 5a 200 mg/kg, 5b 100 and 200 mg/kg daily oral 14 days.
The test system of data set [3] is p53 activation in SJSA-1 tumor tissue. The data set is described as follows: Pharmacodynamic study, Western blotting of tumor tissue. The format is in vivo, mouse. As to conditions: single oral dose 200 mg/kg; for p53 activation in tumor tissue (accumulation of p53, MDM2 and p21): Western blot.
Data set [4] can be described thus: Isomerization in binding assay medium. The format is physicochemical. Conditions: for proportion of isomer in the mixture: 100 h time-point, regardless which isomer was used at the beginning; for isomerization kinetics in binding assay medium: room temperature.
A short description of data set [5]: Isomerization in cell culture medium. Conditions: 2 days, starting from 5a or 5b. It is filed as physicochemical.
Data set [6] deals with SJSA-1 osteosarcoma cell line. Kind of data set: cells. Conditions: Homo sapiens, read-out: IC50 cell growth inhibition.
A short description of data set [7]: Isomerization in vivo in plasma and tumor tissue. As to conditions: plasma and tumor tissue of SCID mice.
The nature of data set [8]: Plasma concentration in tumor bearing SCID mice. As to conditions: for Plasma Concentration of isomer: single oral 100 mg/kg, 24 h.
Data set [9] in a line: Tumor tissue concentration in tumor bearing SCID mice. As to conditions: for Tumor Concentration of isomer: single oral 100 mg/kg, 24 h.
Data set [10] in a line: Stability / isomerization in organic solvents. Conditions: CH2Cl2, THF, EtOAc, DMSO.
A further data set concerns MDM2. As to conditions: ref 6b; cited from earlier work.
In data set [11] the test system is animal models of human cancer. As to conditions: ref 6b; cited from earlier work.
Data set [12] concerns the target recombinant human His-tagged MDM2 protein (residues 1–118) (Homo sapiens, UniProt Q00987). The data set is described as follows: FP-based competitive protein binding assay.
Where [13] appears, read: binding assay medium, after 12 days.

Where “and” joins values, the source holds several entries; their conditions need not be identical. Equal entries are not always repeated. Entries after “also recorded” stand apart in the source; their conditions may differ. Where two headings read alike, the source gives them in different places.

For the compound `CC(C)(C)C[C@H]1N[C@@H](C(=O)NCC[C@H](O)CO)[C@H](c2cccc(Cl)c2F)[C@]12C(=O)Nc1cc(Cl)ccc12` [5d, (2′R,3R,4′S,5′R)-6-chloro-4′-(3-chloro-2-fluorophenyl)-N-((S)-3,4-dihydroxybutyl)-2′-neopentyl-2-oxospiro[indoline-3,3′-pyrrolidine]-5′-carboxamide], in data set [1], the “isomerization in CH3CN-H2O” value is listed as “gradually converted into a mixture of four isomers”.
In the case of `CC(C)(C)C[C@@H]1N[C@@H](C(=O)NCC[C@H](O)CO)[C@H](c2cccc(Cl)c2F)[C@]12C(=O)Nc1cc(Cl)ccc12` [5b, (2′S,3R,4′S,5′R)-6-chloro-4′-(3-chloro-2-fluorophenyl)-N-((S)-3,4-dihydroxybutyl)-2′-neopentyl-2-oxospiro[indoline-3,3′-pyrrolidine]-5′-carboxamide], the “tumor growth inhibition as compared to vehicle control” value in [2] (100 mg/kg daily oral gavage 14 days) turned out to be 67%. Also, in [2], the “weight loss or other signs of toxicity” value is recorded as “no significant weight loss”. In addition, the “apoptosis induction in tumor tissue (PARP cleavage, caspase-3 activation)” value in data set [3] (24 h) is “stronger apoptosis induction than 5a”. Moreover, in data set [3] (200 mg/kg), the “p53 activation in tumor tissue (accumulation of p53, MDM2 and p21)” value is listed as “effectively activated p53; also recorded: clearly more potent than 5a”. Also, the “converted into a mixture of three other isomers” value in data set [1] (CH3CN-H2O, after 12 days) is recorded as 4%. Further, in data set [4] (binding assay medium), the “proportion of isomer in the mixture” value was “approximately 50%”. In addition, the “isomerization kinetics in binding assay medium” value in data set [4] was “slow isomerization kinetic and was the most stable”. Also, the “proportion of 5b of all 4 isomers” value in data set [5] is given as “approximately 50%”. In addition, the IC50 (commonly the midpoint of a concentration-inhibition curve) worked out at 18100 ± 2400 nM in data set [6] (SJSA-1, 24 h); 630 ± 40 nM in data set [6] (SJSA-1, 48 h); 180 ± 10 nM in data set [6] (SJSA-1, 72 h). Moreover, the isomerization in vivo entry in [7] was “isomerizes slowly”. Moreover, in data set [8] (dosed with 5a), the “Plasma Concentration of isomer” value was “BLQ”. Further, the “plasma concentration of 5b in mice dosed with 5b versus mice dosed with 5a” value in data set [8] (mouse, in vivo) was 7 fold and 12 fold. Moreover, the “Tumor Concentration of isomer” value in data set [9] (dosed with 5a) and in data set [9] (dosed with 5b) was “BLQ” each time. In data set [9] (mouse, in vivo), the “tumor tissue concentration of 5b in mice dosed with 5b versus mice dosed with 5a” value is 11 fold and 16 fold.
As for `CN(C)C(=O)[C@@H]1N[C@H](CC(C)(C)C)[C@]2(C(=O)Nc3cc(Cl)ccc32)[C@H]1c1cccc(Cl)c1` [1a, (2′R,3S,4′R,5′R)-6-chloro-4′-(3-chlorophenyl)-N,N-dimethyl-2′-neopentyl-2-oxospiro[indoline-3,3′-pyrrolidine]-5′-carboxamide], the “remaining of starting isomer” value in [4] (setting [13]) is listed as 17.6%. Also, the “converted into 1b” value in data set [4] (binding assay medium, after 12 days, started with 1a) is 53%. The “stability in aprotic solvents” value in data set [10] is “relatively stable”.
With `CC(C)(C)C[C@H]1N[C@@H](C(=O)NCC[C@H](O)CO)[C@H](c2cccc(Cl)c2)[C@@]12C(=O)Nc1cc(Cl)c(F)cc12.Cl` [MI-219], in the data set on MDM2, the “binding affinity to MDM2” value was “low nanomolar affinity”. The “tumor growth in animal models of human cancer” value in [11] was “strongly inhibits tumor growth”.
On to `CN(C)C(=O)[C@@H]1N[C@@H](CC(C)(C)C)[C@@]2(C(=O)Nc3cc(Cl)ccc32)[C@H]1c1cccc(Cl)c1` [1b, (2′S,3R,4′R,5′R)-6-chloro-4′-(3-chlorophenyl)-N,N-dimethyl-2′-neopentyl-2-oxospiro[indoline-3,3′-pyrrolidine]-5′-carboxamide], for which the “remaining of starting isomer” value in [4] (setting [13]) is given as 93.9%.
Turning to `CC(C)(C)C[C@H]1N[C@@H](C(=O)NCC[C@H](O)CO)[C@H](c2cccc(Cl)c2F)[C@@]12C(=O)Nc1cc(Cl)ccc12` [5a, (2′R,3S,4′S,5′R)-6-chloro-4′-(3-chloro-2-fluorophenyl)-N-((S)-3,4-dihydroxybutyl)-2′-neopentyl-2-oxospiro[indoline-3,3′-pyrrolidine]-5′-carboxamide], in data set [2] (200 mg/kg daily oral gavage 14 days), the “tumor growth inhibition as compared to vehicle control” value was found to be 41%. Also, the “weight loss or other signs of toxicity” value in data set [2] is on record as “no significant weight loss”. Also, the “p53 activation in tumor tissue (accumulation of p53, MDM2 and p21)” value in [3] is on record as “effectively activated p53”. The “isomerization in CH3CN-H2O” value in data set [1] is given as “gradually converted into a mixture of four isomers”. Besides, the “proportion of isomer in the mixture” value in [4] (binding assay medium) is recorded as roughly 40%. Moreover, the IC50 in [6] (SJSA-1, 24 h) was determined as 30300 ± 6230 nM; in data set [6] (SJSA-1, 48 h), 950 ± 160 nM; in [6] (SJSA-1, 72 h), 180 ± 20 nM; in data set [6] (SJSA-1, 96 h) it was 150 ± 30 nM. Further, the isomerization in vivo entry in data set [7] was “isomerizes very fast”. Further, the entries for the “Plasma Concentration of isomer” value in data set [8] (dosed with 5a) and in data set [8] (dosed with 5b) were “BLQ” and “BLQ ^b”, respectively. Besides, the “Tumor Concentration of isomer” value in data set [9] (dosed with 5a) and in data set [9] (dosed with 5b) was “BLQ” in each case.
For the compound `CC(C)(C)C[C@@H]1N[C@@H](C(=O)NCC[C@H](O)CO)[C@H](c2cccc(Cl)c2F)[C@@]12C(=O)Nc1cc(Cl)ccc12` [5c, (2′S,3S,4′S,5′R)-6-chloro-4′-(3-chloro-2-fluorophenyl)-N-((S)-3,4-dihydroxybutyl)-2′-neopentyl-2-oxospiro[indoline-3,3′-pyrrolidine]-5′-carboxamide], in data set [1], the “isomerization in CH3CN-H2O” value was “gradually converted into a mixture of four isomers”. In addition, in [4] (binding assay medium, within 30 min), the “isomerized into 5b” value is on record as “approximately 20%”. In data set [4], the “isomerization kinetics in binding assay medium” value is “very fast isomerization kinetics”.
As to `CCOC(=O)[C@@H]1N[C@H](CC(C)(C)C)[C@]2(C(=O)Nc3cc(Cl)ccc32)[C@H]1c1cccc(Cl)c1F` [7a, (2′R,3S,4′S,5′R)-ethyl 6-chloro-4′-(3-chloro-2-fluorophenyl)-2′-neopentyl-2-oxospiro[indoline-3,3′-pyrrolidine]-5′-carboxylate], in data set [12], the 50% inhibitory concentration (IC50) came out at 19500 ± 4000 nM; the Ki (commonly the dissociation constant of the complex between target and ligand, obtained from inhibition or displacement) was found to be 2700 ± 500 nM.
